{
  "source": "ChEMBL document CHEMBL3351656",
  "about": "“Discovery of novel 2-[2-(3-hydroxy-pyridin-2-yl)-thiazol-4-yl]-acetamide derivatives as HIF prolyl 4-hydroxylase inhibitors; SAR, synthesis and modeling evaluation” (Bioorg Med Chem Lett, 2014)",
  "experiment": "Solubility of the compound at pH 7.4",
  "type": "physicochemical",
  "details": "buffer",
  "data": [
    {"smiles": "N#Cc1cnc(-c2nc(CC(=O)NCc3ccccc3)cs2)c(O)c1", "values": [
      {"measurement": "solubility", "value": 24.1, "unit": "µg/mL"}
    ]},
    {"smiles": "N#Cc1cnc(-c2nc(CC(=O)N[C@@H](CO)c3ccccc3)cs2)c(O)c1", "values": [
      {"measurement": "solubility", "value": "> 188", "unit": "µg/mL"}
    ]},
    {"smiles": "N#Cc1cnc(-c2nc(CC(=O)N[C@H](C(=O)O)c3ccccc3)cs2)c(O)c1", "values": [
      {"measurement": "solubility", "value": "> 195", "unit": "µg/mL"}
    ]},
    {"smiles": "N#Cc1cnc(-c2nc(CC(=O)NCC(=O)O)cs2)c(O)c1", "values": [
      {"measurement": "solubility", "value": 106, "unit": "µg/mL"}
    ]},
    {"smiles": "N#Cc1cnc(-c2nc(CC(=O)N3CCCC3)cs2)c(O)c1", "values": [
      {"measurement": "solubility", "value": 108, "unit": "µg/mL"}
    ]},
    {"smiles": "N#Cc1cnc(-c2nc(CC(=O)NCCc3ccccn3)c(-c3ccccc3)s2)c(O)c1", "values": [
      {"measurement": "solubility", "value": 117, "unit": "µg/mL"}
    ]},
    {"smiles": "CCN(CC)CCNC(=O)Cc1nc(-c2ncc(C#N)c(C)c2O)sc1C", "values": [
      {"measurement": "solubility", "value": 85.9, "unit": "µg/mL"}
    ]},
    {"smiles": "Cc1sc(-c2ncc(C#N)cc2O)nc1CC(=O)NCCc1ccccn1", "values": [
      {"measurement": "solubility", "value": 78.4, "unit": "µg/mL"}
    ]},
    {"smiles": "N#Cc1cnc(-c2nc(CC(=O)N[C@@H](C(=O)O)c3ccccc3)cs2)c(O)c1", "values": [
      {"measurement": "solubility", "value": "> 195", "unit": "µg/mL"}
    ]},
    {"smiles": "CCNC(=O)Cc1nc(-c2ncc(C#N)c(C)c2O)sc1C", "values": [
      {"measurement": "solubility", "value": 13.9, "unit": "µg/mL"}
    ]},
    {"smiles": "N#Cc1cnc(-c2nc(CC(=O)NCCc3ccccn3)cs2)c(O)c1", "values": [
      {"measurement": "solubility", "value": "> 181", "unit": "µg/mL"}
    ]},
    {"smiles": "N#Cc1cnc(-c2nc(CC(=O)N[C@H](CO)c3ccccc3)cs2)c(O)c1", "values": [
      {"measurement": "solubility", "value": "> 188", "unit": "µg/mL"}
    ]},
    {"smiles": "CC(C)(NC(=O)Cc1csc(-c2ncc(C#N)cc2O)n1)C(=O)O", "values": [
      {"measurement": "solubility", "value": 28.9, "unit": "µg/mL"}
    ]},
    {"smiles": "N#Cc1cnc(-c2nc(CC(=O)NCCc3ccccc3)cs2)c(O)c1", "values": [
      {"measurement": "solubility", "value": 13.6, "unit": "µg/mL"}
    ]},
    {"smiles": "Cc1sc(-c2ncc(C#N)c(C)c2O)nc1CC(=O)NCCc1ccccn1", "values": [
      {"measurement": "solubility", "value": 6.4, "unit": "µg/mL"}
    ]},
    {"smiles": "Cc1c(C#N)cnc(-c2nc(CC(=O)NCCc3ccccn3)cs2)c1O", "values": [
      {"measurement": "solubility", "value": 11.2, "unit": "µg/mL"}
    ]},
    {"smiles": "CCN(CC)CCNC(=O)Cc1csc(-c2ncc(C#N)c(C)c2O)n1", "values": [
      {"measurement": "solubility", "value": "> 185", "unit": "µg/mL"}
    ]},
    {"smiles": "Cc1c(C#N)cnc(-c2nc(CC(=O)NCCc3ccccn3)c(-c3ccccc3)s2)c1O", "values": [
      {"measurement": "solubility", "value": 0.74, "unit": "µg/mL"}
    ]}
  ]
}
